Data as given in ChEMBL document CHEMBL1144874, “Exploring structure-activity relationships of transition state analogues of human purine nucleoside phosphorylase” (J Med Chem, 2003).

Assays:
[1] = biological target: T1, Purine nucleoside phosphorylase (Homo sapiens, UniProt P00491)
T1 sequence (P00491 whole entry): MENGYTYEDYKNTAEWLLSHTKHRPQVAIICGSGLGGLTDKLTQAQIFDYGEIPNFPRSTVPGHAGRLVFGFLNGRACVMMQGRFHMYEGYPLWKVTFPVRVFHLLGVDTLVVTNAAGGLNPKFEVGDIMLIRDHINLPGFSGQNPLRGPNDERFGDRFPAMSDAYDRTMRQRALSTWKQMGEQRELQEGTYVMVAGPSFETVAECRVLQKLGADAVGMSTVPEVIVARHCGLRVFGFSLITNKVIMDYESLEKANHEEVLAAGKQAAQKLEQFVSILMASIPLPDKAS
Description: Inhibition of human purine nucleoside phosphorylase; Initial rate.

[2] = biological target: T1, Purine nucleoside phosphorylase; remark: listed apart in the source
Description: Equilibrium dissociation constant determined against human purine nucleoside phosphorylase (PNP) after slow-onset inhibition

SMILES | Ki [1] | Ki [2]
Cc1nc2c(O)[nH]cnc-2c1[C@@H]1N[C@H](CO)[C@H](O)C1O (stereo partly drawn) | 10.1 nM | –
Nc1nc(O)c2[nH]cc([C@H]3C[C@@H](O)[C@@H](CO)N3)c2n1 | 0.22 nM | –
OC[C@H]1N[C@@H](c2c[nH]c3c(O)ncnc23)C[C@H]1O | 0.25 nM | –
C[C@H]1N[C@@H](c2c[nH]c3c(=O)[nH]cnc23)C(O)[C@H]1O (stereo partly drawn) | 25 nM | –
Oc1ncnc2c([C@@H]3N[C@H](CF)[C@H](O)C3O)c[nH]c12 (stereo partly drawn) | 81 nM | 7 nM
Nc1[nH]cnc2c(C[C@@H]3N[C@H](CO)[C@H](O)C3O)cnc1-2 (stereo partly drawn) | > 30000 nM | –
OC[C@H]1N[C@@H](c2n[nH]c3c(O)ncnc23)[C@H](O)[C@@H]1O | 1.4 nM | 0.18 nM
COC1[C@@H](O)[C@@H](CO)N[C@H]1c1c[nH]c2c(=O)[nH]cnc12 (stereo partly drawn) | 5.9 nM | –
Nc1nc2c([C@@H]3N[C@H](CO)[C@@H](O)[C@H]3O)c[nH]c2c(=O)[nH]1 | 0.54 nM | 0.042 nM
OC[C@@H]1CC(O)[C@H](c2c[nH]c3c(O)ncnc23)N1 (stereo partly drawn) | 9.5 nM | –
OC[C@H]1N[C@@H](c2c[nH]c3c(O)ncnc23)C(F)(F)[C@H]1O | 1.4 nM | –
OC[C@H]1N[C@@H](c2c(F)[nH]c3c(O)ncnc23)C(O)[C@H]1O (stereo partly drawn) | 5.6 nM | 0.39 nM
CCCN1[C@H](CO)[C@H](O)C(O)[C@@H]1c1c[nH]c2c(O)ncnc12 (stereo partly drawn) | 415 nM | –
OC[C@H]1N[C@@H](Cc2c[nH]c3c(O)ncnc23)C(O)[C@H]1O (stereo partly drawn) | 250 nM | –
Cn1cc([C@@H]2N[C@H](CO)[C@H](O)C2O)c2ncnc(O)c21 (stereo partly drawn) | 4.7 nM | –
OC[C@@H]1[C@H](O)C(O)CN1Cc1c[nH]c2c(O)ncnc12 (stereo partly drawn) | 2.84 nM | –
COc1[nH]cnc2c([C@@H]3N[C@H](CO)[C@H](O)C3O)cnc1-2 (stereo partly drawn) | 4.7 nM | –
OC[C@@H]1[C@H](O)C(O)CN1c1c[nH]c2c(O)ncnc12 (stereo partly drawn) | 12700 nM | –
OC[C@H]1N[C@@H](c2c[nH]c3c(S)ncnc23)C(O)[C@H]1O (stereo partly drawn) | 24.7 nM | –
